Laboratory results reported in patent US5492918A, “Use of substituted chromans, some of which are known, as medicaments, new active compounds and processes for their preparation” (Bayer Aktiengesellschaft, priority 1993, dated 1996).
Like-named read-outs stand apart in the source and are kept apart here.

Key:
HIV protease = biological target: T1, HIV protease (Human immunodeficiency virus type 1 group M subtype B, UniProt P04585); experiment: biochemical; settings: for inhibition at 200 µg/mL: read-out: % Inhibition at 200 μg/ml
T1 construct: purified HIV protease
Protocol: This is confirmed by an HIV-specific protease enzyme test.
The results of the examples shown below were determined by the HIV test system described in the following bibliographical references [cf. Hansen, J., Billich, S., Schulze, T., Sukrow, S. and Molling, K. (1988), EMBO Journal, Vol, 7, No. 6, pp. 1785-1791]: purified HIV protease was incubated with synthetic peptide which imitated a cleavage site in the Gag precursor protein and is an in vivo cleavage site of HIV protease. The resultant cleavage products of the synthetic peptide were analysed by means of reverse phase high performance liquid chromatography (RP-HPLC). The IC50 values indicated relate to the substance concentration which, under the abovementioned test conditions, causes a 50% inhibition of protease activity.

HIV = HIV infection in cell culture: suppression of virus-induced syncytia in human blood lymphocytes (PBL); assay type: cell-based; settings: Human immunodeficiency virus 1, 72 h, 50% of virus-induced syncytia suppressed, day 3 to 6 after infection
Protocol: The HIV test was carried out with slight modifications by the method of Pauwels et al,. [cf. Journal of Virological Methods 20, (1988) , 309-321].
Normal human blood lymphocytes (PBLs) were concentrated on Ficoll Hypaque and stimulated with phytohaemagglutinin (90 μg/ml) and interleukin-2 (40 U/ml) in RPMI 1640, 20% foetal calf serum. For infection with the infectious HIV, PBLs were pelleted and the cell pellet was then suspended in 1 ml of HIV virus adsorption solution and incubated at 37° C for 1 hour.
Alternatively, HIV-susceptible H9 cells were employed instead of normal human blood lymphocytes for testing of the antiviral effects of the compounds according to the invention.
The virus adsorption solution was centrifuged and the infected cell pellet was taken up in growth medium such that a concentration of 1×10^5 cells per ml was set. The cells infected in this way were pipetted at 1×10^4 cells/well into the wells of 96-well microtitre plates.
The first vertical row of the microtitre plate contained only growth medium and cells which had not been infected but otherwise treated exactly as described above (cell control). […]
The test batches were incubated at 37° C until the syncytia formation typical of HIV occurred in the untreated virus control (between day 3 and 6 after infection), which was then assessed microscopically. […]

[1] = 200 μg/ml, purified HIV protease, synthetic peptide substrate, RP-HPLC

inhibition at 200 µg/mL (HIV protease; [1]) | SMILES | inhibition at 200 µg/mL (HIV protease) | other results
– | O=c1[nH]c2ccccc2n1C1CCN(CC2CCc3cccc(O)c3O2)CC1 (racemic) [Example 33, 8-Hydroxy-2-[4-(2-oxo-1-benzimidazolyl)piperidylmethyl]-chroman] | 99% | –
99% | COc1cccc2c1OC(C(=O)N1CCC(NC(=O)Nc3ccccc3)CC1)CC2 (centres unmarked) [Example 1, 8-Methoxy-2-[4-(phenylaminocarbonyl-amino)piperidylcarbonyl]-chroman] | – | –
65% | O=C(C1CCc2ccccc2O1)N1CCC(n2c(=O)[nH]c3ccccc32)CC1 (centres unmarked) [Example 21] | – | –
99% | COc1cccc2c1OC(C(=O)N1CCC(n3c(=O)[nH]c4ccccc43)CC1)CC2 (centres unmarked) [Example 24] | – | –
74% | COc1cccc2c1O[C@H](C(=O)N1CCC(n3c(=O)[nH]c4ccccc43)CC1)CC2 [Example 25] | – | –
– | O=c1[nH]c2ccccc2n1C1CCN(CC2CCc3ccccc3O2)CC1 (centres unmarked) [Example 27] | 81% | –
– | O=c1[nH]c2ccccc2n1C1CCN(C[C@@H]2CCc3ccccc3O2)CC1 [Example 28] | 94% | –
– | COc1cccc2c1OC(CN1CCC(n3c(=O)[nH]c4ccccc43)CC1)CC2 (centres unmarked) [Example 30] | 99% | IC50 (HIV): 10 µM; IC50 (HIV protease; 50% inhibition of protease activity, purified HIV protease, synthetic peptide substrate): 0.0002 µM
– | COc1cccc2c1O[C@H](CN1CCC(n3c(=O)[nH]c4ccccc43)CC1)CC2 [Example 31] | – | IC50 (HIV): 10 µM
